pEC50: −log10 of the molar value. Like-named read-outs stand apart in the source and are kept apart here.
Legend:
[1] = target: T1, human M2 receptor (Homo sapiens, UniProt P08172); format: cell-based; details: α >1 = positive cooperativity
T1 sequence (P08172 1-466): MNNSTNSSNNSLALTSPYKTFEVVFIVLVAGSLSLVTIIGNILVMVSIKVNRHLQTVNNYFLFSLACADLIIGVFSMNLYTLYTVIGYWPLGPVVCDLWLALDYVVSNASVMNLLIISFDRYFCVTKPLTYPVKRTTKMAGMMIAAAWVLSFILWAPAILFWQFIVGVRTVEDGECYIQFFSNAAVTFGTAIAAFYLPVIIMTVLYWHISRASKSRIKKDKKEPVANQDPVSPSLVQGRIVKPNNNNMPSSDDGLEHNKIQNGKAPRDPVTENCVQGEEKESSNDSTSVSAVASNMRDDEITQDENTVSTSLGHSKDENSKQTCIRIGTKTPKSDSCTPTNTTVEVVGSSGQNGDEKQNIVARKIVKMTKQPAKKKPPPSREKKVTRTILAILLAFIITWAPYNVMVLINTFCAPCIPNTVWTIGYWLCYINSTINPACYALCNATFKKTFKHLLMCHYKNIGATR

[2] = target: T1, human M2 receptor
[3] = target: T2, Human Recombinant M2 Muscarinic Acetylcholine Receptor (Homo sapiens, UniProt P08172); test: Selectivity test, Ca2+ release (Eurofins GPCRProfiler): allosteric modulator assay, M2 (B-3.2); format: cell-based; details: for Selectivity (Shift EC50 M2/Shift EC50 M4): Table 2, quotient of allosteric shifts M2/M4; for Selectivity (Shift EC50 M2/Shift EC50 M1): Table 3, quotient of allosteric shifts M2/M1
T2 sequence (P08172 1-466): T1 sequence (P08172 1-466)
Method: B-3. Selectivity Test with Respect to Human Muscarinic Acetylcholine Receptors
Any potentially agonistic effect, or else positive allosteric effect, of the test substances on other human muscarinic acetylcholine receptors can be determined in a functional Ca^2+ release test (Eurofins; GPCRProfiler® Services in agonistic and allosteric mode for Mx Receptors; cat#: HTS600GPCR).
The substance test is conducted with a FLIPR^TETRA instrument (Molecular Devices).
After the agonism assay has ended, the assay plate is incubated at 25° C. for 7 min. After the incubation period, the positive allosteric modulator assay is initialized.
B-3.2. Allosteric Modulator Assay
In order to examine any positive or negative allosteric effect of the test substances on other human muscarinic acetylcholine receptors and the M2 receptor itself, every substance concentration is combined with an acetylcholine 8-point dose-response curve. Addition of agonist solution is again followed in turn by the measurement of cell fluorescence for a period of 180 sec. The shift in the acetylcholine dose-response curve (maximum shift in the EC50 of acetylcholine) is analysed and quantified by means of GraphPad PRISM (Sigmoidal dose-response (variable slope)−EC50). Finally, quotients of the allosteric shift for the M2 receptor and M4 receptor are formed, which function in turn as a measure of the respective selectivity.

[4] = test system: anaesthetized rats; test: Effects on the heart rate in anaesthetized rats (B-9); format: in vivo, rat; details: i.v. infusion via jugular vein over 5 min, dose not given, in some cases means of several determinations
Method: B-9. Effects of the Test Substances on the Heart Rate in Anaesthetized Rats
Male rats of the strain (WI) WU Br from the breeder Charles River are anaesthetized initially with a 4-5% isoflurane inhalation for approx. 3 min. Subsequently, anaesthesia is maintained using a 1.5% isoflurane inhalation. For this purpose, the anaesthetized animals are fixed on a heated operating plate. By means of visual inspection and between toe reflex, the depth of anaesthesia is checked.
For the application of the test substance, an i.v. route into the jugular vein is used. A caudal to cranial skin incision is then made longitudinally and both the cervical musculature and the salivary glands are severed. The right common carotid artery is exposed and blood supply is arrested both proximally and distally. Using microinstrumentation, a TIP catheter (1.2 F) is introduced into the vessel in order to measure the arterial pressure and the heart rate.
Initially, both parameters are monitored for 10 min in the basal state without substance addition. The substances to be investigated are dissolved in suitable solvent mixtures and subsequently administered at various dosages to a group of animals in each case via the jugular vein by an infusion pump over 5 min. A solvent-treated group is used as control under the same experimental conditions. The arterial blood pressure and heart rate with substance addition is determined for 20 min. The data are registered with the PowerLab system (AD instruments) and evaluated using the LabChart program (AD instruments).
The values determined in this manner for the percentage decrease in heart rate for individual working examples are given in Table 4 below (in some cases as means of a plurality of independent individual determinations): […]

[5] = shift in the acetylcholine dose-response curve (Allosteric EC50 shift, GraphPad PRISM)
[6] = Receptor activity EC50, M2-GIRK1/4 activation test, acetylcholine at EC20, allosteric potency, in some cases mean values from two or more determinations
[7] = test substance concentration 1 μM
[8] = test substance concentration 10 μM
[9] = shift of acetylcholine dose-response curve (Allosteric EC50 shift)
[10] = Receptor activity EC50, allosteric potency at EC20 acetylcholine, M2-GIRK1/4 reporter cells, in some cases mean of two or more determinations
[11] = read-out: Efficiency, boosting of the acetylcholine effect at EC20 acetylcholine concentration, M2-GIRK1/4 reporter cells

Structure (SMILES)	Cooperativity (alpha factor) [1, 5]	pEC50 [2, 6]	Emax ([2]; read-out: Efficiency) [%]	Selectivity (Shift EC50 M2/Shift EC50 M4) [3, 7]	Selectivity (Shift EC50 M2/Shift EC50 M4) [3, 8]	Selectivity (Shift EC50 M2/Shift EC50 M1) [3, 8]	Reduction in heart rate (%) [4] [%]	Cooperativity (alpha factor) [1, 9]	pEC50 [2, 10]	Emax [2, 11] [%]
CC[C@@H](NC(=O)c1cn(-c2ccc(F)cc2F)c2nc(N3C[C@@H](O)CC3=O)ccc2c1=O)C(F)(F)F [Example 175]	33	7.16	97.3	29	83	287	6			
O=C(N[C@@H](C1CC1)C(F)(F)F)c1cn(-c2c(F)cc(F)cc2F)c2nc(N3CCNC3=O)ccc2c1=O [Example 323, N-[(1 S)-1-Cyclopropyl-2,2,2-trifluoroethyl]-4-oxo-7-(2-oxoimidazolidin-1-yl)-1-(2,4,6-trifluorophenyl)-1,4-dihydro-1,8-naphthyridine-3-carboxamide]	16	7.85		52	44	31	13			
CC(C)(CC(F)(F)F)NC(=O)c1cn(-c2c(F)cc(F)cc2F)c2nc(N3C[C@@H](O)[C@H](O)C3)ccc2c1=O [Example 370, 7-[(3R,4R)-3,4-Dihydroxypyrrolidin-1-yl]-4-oxo-N-(4,4,4-trifluoro-2-methylbutan-2-yl)-1-(2,4,6-trifluorophenyl)-1,4-dihydro-1,8-naphthyridine-3-carboxamide]	32	7.85					12			
O=C(N[C@H](C1CC1)C(F)(F)F)c1cn(-c2c(F)cc(F)cc2F)c2nc(N3C[C@@H](O)CC3=O)ccc2c1=O [Example 386, N-[(1R)-1-Cyclopropyl-2,2,2-trifluoroethyl]-7-[(4S)-4-hydroxy-2-oxopyrrolidin-1-yl]-4-oxo-1-(2,4,6-trifluorophenyl)-1,4-dihydro-1,8-naphthyridine-3-carboxamide]	39	8.05					13			
O=C(N[C@@H](C1CC1)C(F)(F)F)c1cn(-c2c(F)cc(F)cc2F)c2nc(N3C[C@@H](O)CC3=O)ccc2c1=O [Example 404, N-[(1 S)-1-Cyclopropyl-2,2,2-trifluoroethyl]-7-[(4S)-4-hydroxy-2-oxopyrrolidin-1-yl]-4-oxo-1-(2,4,6-trifluorophenyl)-1,4-dihydro-1,8-naphthyridine-3-carboxamide]							9	35	8.15	98.3
CC[C@@H](NC(=O)c1cn(-c2c(F)cc(F)cc2Cl)c2nc(N3C[C@@H](O)CC3=O)ccc2c1=O)C(F)(F)F [Example 407, 1-(2-Chloro-4,6-difluorophenyl)-7-[(4S)-4-hydroxy-2-oxopyrrolidin-1-yl]-4-oxo-N-[(2R)-1,1,1-trifluorobutan-2-yl]-1,4-dihydro-1,8-naphthyridine-3-carboxamide]							13	32	8.15	98.5
O=C(N[C@H](C1CC1)C(F)(F)F)c1cn(-c2c(F)cc(F)cc2Cl)c2nc(N3C[C@@H](O)CC3=O)ccc2c1=O [Example 414, 1-(2-Chloro-4,6-difluorophenyl)-N-[(1R)-1-cyclopropyl-2,2,2-trifluoroethyl]-7-[(4S)-4-hydroxy-2-oxopyrrolidin-1-yl]-4-oxo-1,4-dihydro-1,8-naphthyridine-3-carboxamide]							16	40	8.05	100
CC(C)(CC(F)(F)F)NC(=O)c1cn(-c2c(F)cc(F)cc2F)c2nc(N3C[C@@H](O)CC3=O)ccc2c1=O [Example 511, 7-[(4S)-4-Hydroxy-2-oxopyrrolidin-1-yl]-4-oxo-N-(4,4,4-trifluoro-2-methylbutan-2-yl)-1-(2,4,6-trifluorophenyl)-1,4-dihydro-1,8-naphthyridine-3-carboxamide]							10	30	8.05	100
O=C(N[C@@H](C1CC1)C(F)(F)F)c1cn(-c2c(F)cc(F)cc2F)c2nc(N3C[C@@H](O)[C@H](O)C3)ccc2c1=O [Example 590, N-[(1S)-1-Cyclopropyl-2,2,2-trifluoroethyl]-7-[(3R,4R)-3,4-dihydroxypyrrolidin-1-yl]-4-oxo-1-(2,4,6-trifluorophenyl)-1,4-dihydro-1,8-naphthyridine-3-carboxamide]			100	7	33	30	13	43	7.82	
